Assay results: US9301989B2, “hTRPA1-activating composition and use thereof” (KOREA FOOD RESEARCH INSTITUTE, priority 2011, dated 2016)
“Also recorded” adds a separate entry of the source.

Key:
hTRPA1 [1] = target: T1, hTRPA1 (Homo sapiens, UniProt O75762); test: Evaluation of hTRPA1 action using Ca2+ imaging (Fura-2/AM) in cell lines stably expressing hTRPA1; type: cell-based; conditions: for calcium release in hTRPA1 stably expressing cell line: 50 μM, FIG. 2; for activity inhibition by ruthenium red (RR): treatment with cationic channel blocker RR
T1 construct: The hTRPA1-expressing gene (coding region) was cloned; expressed in transfected cells
T1 sequence (O75762 whole entry): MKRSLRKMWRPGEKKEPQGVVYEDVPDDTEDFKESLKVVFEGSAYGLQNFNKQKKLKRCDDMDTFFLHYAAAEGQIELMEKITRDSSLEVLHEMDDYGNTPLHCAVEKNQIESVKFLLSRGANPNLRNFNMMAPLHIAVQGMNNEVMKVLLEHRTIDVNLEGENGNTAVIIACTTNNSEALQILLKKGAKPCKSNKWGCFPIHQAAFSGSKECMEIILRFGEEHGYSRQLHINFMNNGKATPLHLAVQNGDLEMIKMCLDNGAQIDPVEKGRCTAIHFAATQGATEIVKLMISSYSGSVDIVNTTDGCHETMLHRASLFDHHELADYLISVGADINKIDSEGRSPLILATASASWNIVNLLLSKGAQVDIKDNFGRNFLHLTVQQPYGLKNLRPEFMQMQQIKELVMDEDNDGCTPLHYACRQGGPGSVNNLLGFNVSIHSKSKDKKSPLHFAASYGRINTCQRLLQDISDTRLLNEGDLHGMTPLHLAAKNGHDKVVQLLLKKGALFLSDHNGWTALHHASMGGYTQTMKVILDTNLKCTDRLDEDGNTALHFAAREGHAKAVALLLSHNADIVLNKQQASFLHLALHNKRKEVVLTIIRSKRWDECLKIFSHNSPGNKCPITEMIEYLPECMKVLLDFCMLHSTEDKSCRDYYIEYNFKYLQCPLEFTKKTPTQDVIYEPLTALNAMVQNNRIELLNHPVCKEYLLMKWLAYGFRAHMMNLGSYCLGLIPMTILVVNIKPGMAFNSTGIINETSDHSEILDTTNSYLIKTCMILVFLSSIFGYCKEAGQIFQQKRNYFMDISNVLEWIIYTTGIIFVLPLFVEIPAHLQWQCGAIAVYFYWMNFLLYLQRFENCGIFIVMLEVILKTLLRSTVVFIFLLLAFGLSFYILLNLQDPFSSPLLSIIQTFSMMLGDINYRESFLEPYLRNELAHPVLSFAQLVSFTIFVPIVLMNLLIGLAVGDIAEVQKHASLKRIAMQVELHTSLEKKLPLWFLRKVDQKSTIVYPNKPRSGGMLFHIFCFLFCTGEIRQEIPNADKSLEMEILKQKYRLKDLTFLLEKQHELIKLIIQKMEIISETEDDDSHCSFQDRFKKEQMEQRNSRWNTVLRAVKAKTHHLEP
Protocol: (§1) The hTRPA1-expressing gene (coding region) was cloned according to the manufacturer's protocol for the pcDNA5/FRT Complete System (Invitrogen). In order to verify whether the hTRPA1 gene was accurately inserted into the vector, sequencing was carried out using the ABI 130 or 310 DNA generatic analyzer (Applied Biosystems), and the constructed vector and Pog44 were transduced into Flin-in 293 cells using Lipofectamine 2000 (Invitrogen). After 24 hours, the cells were optionally treated with 100 μg/ml of hygromycin-B (Invitrogen), following by further culturing for 2-3 weeks. Then, only antibiotic-resistant cells were collected, and used for measuring cellular responses of hTRPA1, followed by repeated culturing. The cells were cultured in Dulbecco's modified Eagle's medium (DMEM) supplemented with 10% fetal bovine serum.
The Ca^2+ imaging was conducted to measure hTRPA1 activation. Fura-2/AM (Molecular Probes, USA) was used as a marker for measuring the change in the intracellular calcium concentration. At 20-26 hours before the analysis, cell lines stably expressing hTRPA1 were dispensed in a 96-well plate. The cells were cultured in a solution added with Fura-2/AM (5 μM) at 27° C. for 30 minutes. The cells were washed with an assay buffer (140 mM NaCl, 10 mM HEPES, 2 mM CaCl2.2H2O, 2 mM EGTA, 1 mM MgCl2.6H2O, 10 mM glucose, and 5 mM KCl), added with 100 μL of the assay buffer, and left at room temperature for 15 minutes. The Fura-2/AM-loaded cells were placed on a microscope, and the fluorescence absorbance was measured between 340 nm and 380 nm. The images were recorded at 3-sec intervals, and the change in the intracellular calcium concentration was analyzed using MetalFluor software (Molecular Devices, Sunnyvale, Calif., USA).

NCI-H716 cells = test: GLP-1 secretion effect in NCI-H716 cells (GLP-1 active ELISA); type: cell-based, human; conditions: 1 hour
Source text: Glucagon-like peptide-1 (GLP-1), which is the hormone secreted from the gut, is involved in an anti-diabetic action by amplifying glucose-stimulated insulin secretion and suppressing the beta-cell death. GLP-1 is also involved in an anti-obesity action by decreasing the rate of gastric emptying and suppressing the appetite. Therefore, a GLP-1 secreting material can be expected to have anti-diabetic and anti-obesity effects.
The human-derived cell line NCI-H716 cells were purchased from the American Type Culture Collection (ATCC, Manassas, Va.). This cell line corresponds to suspension cells isolated from the large-intestinal Adenocarcinoma of an adult, and has been known as a cell line that mainly secrets GLP-1. For the maintenance of proliferation and culture of the cell line, the cells were cultured in RPMI 1640 medium supplemented with 10% fetal bovine serum (FBS), 2 mM L-glutamine, 100 IU/ml penicillin, and 100 μg/ml streptomycin, and for the adherence and differentiation of cells, the Matrigel matrix (Becton Dickinson and Co., Bedford, Mass.) was coated on plates and the cells were cultured in high-glucose DMEM supplemented with 10% FBS, 2 mm L-glutamine, 100 IU/ml penicillin, and 100 μg/ml streptomycin.
The NCI-H716 cell line was cultured at 2×10^5 cells/mL in a 96-well culture plate coated with Matrigel for 3 days. On the day of the experiment, the cells were washed with 1× phosphated buffered saline (PBS). For the control group, Krebs-Ringer bicarbonate buffer (KRB, 128.8 mmol/l NaCl, 4.8 mmol/l KCl, 1.2 mmol/l KH2PO4, 1.2 mmol/l MgSO4, 2.5 mmol/l CaCl2, 5 mmol/l NaHCO3, and 10 mmol/l HEPES, 0.2% BSA, pH 7.4) was used. For the analysis, the samples of different concentrations were added thereto, followed by incubation at 37° C. for 1 hour. After the incubation, the supernatant was taken (100 μL) for GLP-1 analysis, and analyzed by using the GLP-1 active ELISA kit (EGLP-35K, Millipore) according to the manufacturer's manual. The concentration of GLP-1 was calculated based on the supplied GLP-1 standard material (pmol).

[2] = Sensory test for pungent flavor; type: in vivo; conditions: 1 μM solution
Protocol: The sensory test was conducted for the pungent flavor due to coniferyl alcohol. A solution of 1 μM coniferyl alcohol was used, and the sensitivity of the pungent taste was marked in a 15-point scale (n=6).

[3] = Lacrimation test (solution sprayed onto eyes of participants); type: in vivo; conditions: 1 μM solution sprayed onto eyes
Protocol: The lacrimation test was conducted on the coniferyl alcohol. A solution of 1 μM coniferyl alcohol was used, and experiment participants were asked to write down their feeling when the solution was sprayed onto their eyes.

hTRPA1 [4] = target: T1, hTRPA1; test: Measurement of intracellular Ca2+ concentration using cell-based analysis (FlexStation, Fluo-4-AM)
Protocol: as §1
The intercellular Ca^2+ concentration was measured by using FlexStation™ (Molecular Devices, Sunnyvale, Calif., USA). Cells were dispensed at 24 hours before the analysis, and treated with 5 μM Fluo-4-AM (Molecular Probes, Eugene, Oreg., USA) as a marker for measuring the change in the intracellular calcium concentration, followed by reaction at 27° C. for 30 minutes. After that, the cells were washed with an assay buffer (140 mM NaCl, 10 mM HEPES, 2 mM CaCl22H2O, 2 mM EGTA, 1 mM MgCl26H2o, 10 mM glucose, and 5 mM KCl), added with 100 μL of the assay buffer, and left at room temperature for 15 minutes. Then, each of extracts and compositions was treated and used to measure fluorescence absorbance at 486 nm (F486) and 516 nm (F516). The change in intercellular calcium concentration was represented as A relative fluorescent unit (RFU), and was analyzed by using the Softmax software (Molecular devices, USA).

| SMILES | calcium response / hTRPA1 action in hTRPA1-expressed cells (Ca2+ imaging) (hTRPA1 [1]) | calcium release in hTRPA1 stably expressing cell line (hTRPA1 [1]) | activity inhibition by ruthenium red (RR) (hTRPA1 [1]) | GLP-1 secretion as compared with the untreated control group (NCI-H716 cells; 500 μM) [times] | activity inhibition by HC-030031 (hTRPA1 [1]; treatment with TRPA1 antagonist HC-030031) | taste description in sensory test [2] | intensity of pungent tastes (spicy, tingle, and tangy tastes) ([2]; 15-point scale, n=6) | ocular tears or irritation due to spray [3] | EC50 (hTRPA1 [4]; FIG. 29) [µM] | Ca2+ response inhibited by TRPA1 antagonist HC-030031 (hTRPA1 [4]; HC-030031 100 μM) | Ca2+ response inhibited by cationic channel blocker RR (hTRPA1 [4]; RR 30 μM) | GLP-1 secretion as compared with the untreated control group (NCI-H716 cells; 3 μM) [times] | GLP-1 secretion as compared with the untreated control group (NCI-H716 cells; 10 μM or higher) [times] |
| --- | --- | --- | --- | --- | --- | --- | --- | --- | --- | --- | --- | --- | --- |
| O=C(/C=C/c1ccc(O)c(O)c1)O[C@@H]1C[C@](O)(C(=O)O)C[C@@H](O)[C@H]1O [chlorogenic acid] | no effects | – | – | – | – | – | – | – | – | – | – | – | – |
| O=CC=Cc1ccccc1 [CALD, cinnamaldehyde] | all cells were activated | calcium was released | most activities were inhibited | – | – | – | – | – | – | – | – | – | – |
| C=CCN=C=S [AITC, allyl isothiocyanate] | all cells were activated | calcium was released | most activities were inhibited | 3.9 | not inhibited | – | – | – | – | – | – | – | – |
| COc1cc(/C=C/CO)ccc1O [coniferyl alcohol, Coniferyl alcohol] | specifically acted on hTRPA1; also recorded: increased the intercellular Ca^2+ influx in a time-dependent manner | – | completely blocked | – | – | the remaining taste was stronger than the first taste and the tongue burns or has a pain | 11.83±1.6 | ocular pain (tingling, stinging, and dizziness) was observed | 654 | inhibited; also recorded: significantly reduced | inhibited | 3 | ≥ 4 |
